Data from US12029814B1, “Formulation of ear drops and methods for delivery thereof for treating upper respiratory infections” (priority 2023, dated 2024).

How the values were obtained:
Assay type in all cases: cell-based
SARS-COV-2 XBB1.5 = system: SARS-COV-2 XBB1.5
SARS-COV-2 BA.2 = system: SARS-COV-2 BA.2
SARS-COV-2 BA.1 = system: SARS-COV-2 BA.1
SARS-COV-2 XBB = system: SARS-COV-2 XBB
[1] = system: original WA1 viral strain of SARS-COV-2; test: in vitro infectivity of epithelial cells expressing ACE-2 and TMPRSS-2, virus-NP protein in culture media; conditions: MOI 0.01
SARS-COV-2 BA.5 = system: SARS-COV-2 BA.5

hemin
replication of SARS-COV-2 XBB1.5 (SARS-COV-2 XBB1.5): significantly suppressed replication
replication of SARS-COV-2 BA.2 (SARS-COV-2 BA.2): significantly suppressed replication
cellular protection against SARS-COV-2 BA.1 infection (SARS-COV-2 BA.1): protected cells
inhibition of SARS-COV-2 BA.1 (dose response) (SARS-COV-2 BA.1): dose-dependent inhibition
replication of SARS-COV-2 XBB (SARS-COV-2 XBB): significantly suppressed replication
SARS-COV-2 infection, original WA1 viral strain [1]: markedly suppressed
replication of SARS-COV-2 BA.5 (SARS-COV-2 BA.5): significantly suppressed replication
